Assay [1] deals with WT ADRA1D. Particulars: cited from earlier work.
The subject of assay [2] is ΔPDZ ADRA1D. The settings on record: cited from earlier work.
The target of assay [3] is WT HTR2A (Homo sapiens, UniProt P28223). Put plainly: Label-free DMR agonist response, HEK293T expressing WT HTR2A. It counts as cell-based. Particulars: time to peak DMR.
Assay [4] has as its target ΔPDZ HTR2A (Homo sapiens, UniProt P28223). Put plainly: Label-free DMR agonist response, HEK293T expressing ΔPDZ HTR2A. The assay is classed as cell-based.

The structures appear in SMILES notation.

Sequence of ΔPDZ HTR2A (P28223 1-467 limits assumed, stated change not applied): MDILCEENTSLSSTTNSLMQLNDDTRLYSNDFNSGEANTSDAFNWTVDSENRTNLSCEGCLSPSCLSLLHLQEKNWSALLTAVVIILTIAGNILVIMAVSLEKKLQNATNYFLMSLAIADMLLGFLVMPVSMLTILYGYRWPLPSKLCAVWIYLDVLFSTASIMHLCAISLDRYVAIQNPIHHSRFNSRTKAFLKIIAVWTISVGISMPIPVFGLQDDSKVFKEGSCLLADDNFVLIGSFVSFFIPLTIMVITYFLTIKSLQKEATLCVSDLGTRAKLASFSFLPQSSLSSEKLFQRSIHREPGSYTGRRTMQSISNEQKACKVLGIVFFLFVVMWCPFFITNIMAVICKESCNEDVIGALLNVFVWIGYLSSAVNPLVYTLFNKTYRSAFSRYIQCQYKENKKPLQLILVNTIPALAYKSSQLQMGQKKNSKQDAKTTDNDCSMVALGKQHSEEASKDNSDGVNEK
Sequence of WT HTR2A (P28223 whole entry): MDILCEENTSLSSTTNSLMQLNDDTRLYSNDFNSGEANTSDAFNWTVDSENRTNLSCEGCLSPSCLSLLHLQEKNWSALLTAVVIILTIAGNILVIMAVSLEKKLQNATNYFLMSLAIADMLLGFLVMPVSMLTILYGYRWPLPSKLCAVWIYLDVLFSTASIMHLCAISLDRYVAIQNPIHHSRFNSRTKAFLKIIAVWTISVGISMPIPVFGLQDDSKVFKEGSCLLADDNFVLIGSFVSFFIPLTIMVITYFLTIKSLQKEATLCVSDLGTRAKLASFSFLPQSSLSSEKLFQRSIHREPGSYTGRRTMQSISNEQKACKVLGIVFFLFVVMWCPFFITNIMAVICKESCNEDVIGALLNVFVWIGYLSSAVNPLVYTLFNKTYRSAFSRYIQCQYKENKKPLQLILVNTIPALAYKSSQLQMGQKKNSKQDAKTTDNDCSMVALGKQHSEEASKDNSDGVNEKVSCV

In the case of `CNC[C@H](O)c1cccc(O)c1` [phenylephrine], the “enhancement of the DMR response” value in assay [1] (ADRA1D with overexpression of SCRIB alone) is roughly 5 fold. Further, the “activation, DMR (in words)” value in assay [1] (WT ADRA1D) and in assay [2] was “weak activation” each time.

In the case of `Cl.NCCc1c[nH]c2ccc(O)cc12` [5-hydroxytryptamine, 5-hydroxytryptamine hydrochloride], the “WT TTP” value in assay [3] came out at 14.10 s. The “ΔPDZ Max (DMR)” value in assay [4] (maximal agonist DMR response) is reported as 106.10 ± 3.96. Further, the “ΔPDZ TTP” value in assay [4] (time to peak DMR) stood at 14.70 s.

(Values after publication PMC4775402 (Pharmacological research, 2016).)
